Values joined by “and” are separate entries in the source; they are usually repeats but may differ in a detail not shown here. Identical values can stand only once. “Also recorded” adds a separate entry of the source. Like-named read-outs stand apart in the source and are kept apart here. Positions of bridges follow the written chain, without caps; N, C: chain ends. Residues, ends and D or L forms follow the SMILES beside them. *: point of attachment. Stearoyl = CCCCCCCCCCCCCCCCCC(=O)*; Octanoyl = CCCCCCCC(=O)*
Assays:
[1] = tested on: MCF-7 breast cancer line; test: cells; conditions: Homo sapiens, MCF7, 72 h, 72-hour treatment
[2] = tested on: Calu-6 lung cancer cell line; test: cells; conditions: Homo sapiens, Calu-6, 72 h, 72-hour treatment
[3] = tested on: Calu-6 lung cancer cell line; conditions: for IC50: 2 h; for % cell death Calu 6: 72-hour treatment, inactive indicates no growth inhibition at a concentration of 100 µM
[4] = tested on: MCF-7 breast cancer line; conditions: 2 h
[5] = tested on: H3K4me2 at the promoter of the IGFBP2 gene in NCI-H526 cells; test: ChIP-qPCR of H3K4me2 at IGFBP2 promoter; assay type: cell-based; conditions: 100 µM, 48 h
[6] = tested on: global H3K4me2 in Calu6 lung adenocarcinoma cells; test: Western blot of global H3K4me2, Calu6; conditions: 10 µM, 48-hour exposure
[7] = tested on: H3K4me2 at the promoter of the FEZ1 gene in NCI-H526 cells; test: ChIP-qPCR of H3K4me2 at FEZ1 promoter; assay type: cell-based; conditions: 100 µM, 48 h
[8] = tested on: global H3K4me2 in K562 leukemia cells; test: Western blot of global H3K4me2, K562
[9] = tested on: K562 myelogenous leukemia cell line; conditions: for % cell death K562: 72-hour treatment
[10] = biological target: recombinant LSD1/CoREST (Homo sapiens, UniProt O60341); test: In vitro LSD1 demethylation assay; assay type: biochemical; conditions: Table 3, truncated peptides; inhibitor 500 nM; 0.5 µM
[11] = tested on: Calu-6 lung cancer cell line; conditions: read-out: IC50 (Calu-6); cited from earlier work
[12] = tested on: MCF-7 breast cancer line; conditions: read-out: IC50 (MCF7); cited from earlier work
[13] = tested on: recombinant LSD1; conditions: cited from earlier work
[14] = biological target: LSD1 bound to CoREST; conditions: read-out: Ki, LSD1 bound to CoREST; cited from earlier work

For N=C(NCCCNCCCCCCCNCCCNC(=N)NC(=N)NCCC(c1ccccc1)c1ccccc1)NC(=N)NCCC(c1ccccc1)c1ccccc1 [Compound 3, verlindamycin], the IC50 ([1]; read-out: IC50 (MCF7), Table 2) was 5.1 µM, the IC50 ([1]; read-out: IC50 (MCF7), Table 6) was 2.5 µM and the IC50 ([2]; read-out: IC50 (Calu-6), Table 2) was 6.3 µM. For the same molecule, the IC50 ([2]; read-out: IC50 (Calu-6), Table 6) was 1.6 µM.
In the case of CCCCCCCCCCCCCCCCCC(=O)NCCCC[C@H](NC(=O)[C@H](C)NC(=O)[C@H](CC(C)C)NC(=O)[C@H](CCC(N)=O)NC(=O)[C@H](CCCCN)NC(=O)[C@H](CCCNC(=N)N)NC(=O)[C@@H]1CCCN1C(=O)[C@H](C)NC(=O)[C@H](CCCCN)NC(=O)CNC(=O)CNC(=O)[C@@H](NC(=O)[C@@H]1CCC(=O)NCCCC[C@H](NC(=O)[C@H](CCSC)NC(=O)[C@@H](NC(=O)[C@H](CCCNC(=N)N)NC(=O)[C@H](C)N)[C@@H](C)O)C(=O)N[C@@H]([C@@H](C)O)C(=O)N[C@@H](C)C(=O)N[C@@H](CCCNC(=N)N)C(=O)N[C@@H](CCCCN)C(=O)N1)[C@@H](C)O)C(N)=O [Compound 25], the IC50 [3] is reported as under 11 µM and the IC50 [4] is reported as under 5 µM.
CCCCCCCCCCCCCCCCCC(=O)NCCCC[C@H](NC(=O)[C@H](C)NC(=O)[C@H](CC(C)C)NC(=O)[C@H](CCC(N)=O)NC(=O)[C@H](CCCCN)NC(=O)[C@H](CCCNC(=N)N)NC(=O)[C@@H]1CCCN1C(=O)[C@H](C)NC(=O)[C@H](CCCCN)NC(=O)CNC(=O)CNC(=O)[C@@H](NC(=O)[C@@H]1CCC(=O)NCCCC[C@H](NC(=O)[C@H](CCSC)NC(=O)[C@H](C)NC(=O)[C@H](CCCNC(=N)N)NC(=O)[C@H](C)N)C(=O)N[C@@H]([C@@H](C)O)C(=O)N[C@@H](C)C(=O)N[C@@H](CCCNC(=N)N)C(=O)N[C@@H](CCCCN)C(=O)N1)[C@@H](C)O)C(N)=O [Compound 26] (H-ARAMKTARKETGGKAPRKQLAK(Stearoyl)-NH2; lactam 5-10) showed an IC50 [3] of under 11 µM and an IC50 [4] of under 5 µM.
For CCCCCCCC(=O)NCCCC[C@H](NC(=O)[C@H](C)NC(=O)[C@H](CC(C)C)NC(=O)[C@H](CCC(N)=O)NC(=O)[C@H](CCCCN)NC(=O)[C@H](CCCNC(=N)N)NC(=O)[C@@H]1CCCN1C(=O)[C@H](C)NC(=O)[C@H](CCCCN)NC(=O)CNC(=O)CNC(=O)[C@@H](NC(=O)[C@@H]1CCC(=O)NCCCC[C@H](NC(=O)[C@H](CCSC)NC(=O)[C@@H](NC(=O)[C@H](CCCNC(=N)N)NC(=O)[C@H](C)N)[C@@H](C)O)C(=O)N[C@@H]([C@@H](C)O)C(=O)N[C@@H](C)C(=O)N[C@@H](CCCNC(=N)N)C(=O)N[C@@H](CCCCN)C(=O)N1)[C@@H](C)O)C(N)=O [Compound 27], the “H3K4me2 levels at the IGFBP2 promoter” value [5] was “increases H3K4me2 marks”, the “change in global H3K4 methylation compared to control” value [6] was “did not induce any changes” and the “H3K4me2 levels at the FEZ1 promoter” value [7] was “increases H3K4me2 marks”. The “increase in global H3K4me2 compared to control” value ([8]; 10 µM, 48-hour exposure, normalized to GAPDH) was 17.6 fold, the IC50 [3] was 92.4 µM and the IC50 [4] was 36.1 µM.
For CCCCCCCC(=O)NCCCC[C@H](NC(=O)[C@H](C)NC(=O)[C@H](CC(C)C)NC(=O)[C@H](CCC(N)=O)NC(=O)[C@H](CCCCN)NC(=O)[C@H](CCCNC(=N)N)NC(=O)[C@@H]1CCCN1C(=O)[C@H](C)NC(=O)[C@H](CCCCN)NC(=O)CNC(=O)CNC(=O)[C@@H](NC(=O)[C@@H]1CCC(=O)NCCCC[C@H](NC(=O)[C@H](CCSC)NC(=O)[C@H](C)NC(=O)[C@H](CCCNC(=N)N)NC(=O)[C@H](C)N)C(=O)N[C@@H]([C@@H](C)O)C(=O)N[C@@H](C)C(=O)N[C@@H](CCCNC(=N)N)C(=O)N[C@@H](CCCCN)C(=O)N1)[C@@H](C)O)C(N)=O [Compound 28] (H-ARAMKTARKETGGKAPRKQLAK(Octanoyl)-NH2; lactam 5-10), the “H3K4me2 levels at the IGFBP2 promoter” value [5] was “greatest increase; also recorded: increases H3K4me2 marks”, the “change in global H3K4 methylation compared to control” value [6] was “did not induce any changes” and the “H3K4me2 levels at the FEZ1 promoter” value [7] was “greatest increase; also recorded: increases H3K4me2 marks”. For the same molecule, the “dose dependence of H3K4 methylation” value ([8]; 0.1 µM and 1.0 µM, 48 h, preliminary study) was “modest dose dependent increase”, the IC50 [3] was 40.2 µM and the IC50 ([9]; 2 h) was 95.1 µM. The IC50 [4] was 28.1 µM.
With Cl.Cl.c1ccc([C@@H]2C[C@H]2NC2CCNCC2)cc1 [GSK-LSD1, reference compound] the “H3K4me2 levels at the IGFBP2 promoter” value [5] was “increases H3K4me2 marks; also recorded: somewhat less effective” and the “H3K4me2 levels at the FEZ1 promoter” value [7] was “increases H3K4me2 marks; also recorded: somewhat less effective”.
With “H-ARAM c[K^5TARK^9E^10] -NH2 [Compound 24]” the “% inhibition of LSD1 at 500 nM” value [10] was 59.8% and 59.78 ± 5.71% and the “% cell death Calu 6” value [3] was “inactive”.
In the case of “H-ARAM c[K^5TARK^9E^10]TG-NH2 [Compound 23]”, the “% inhibition of LSD1 at 500 nM” value [10] is reported as 67.3% and 67.31 ± 5.81%, the “% cell death Calu 6” value [3] is reported as “inactive” and the “% cell death K562” value ([9]; 1.0 µM) is reported as 90 ± 9.4%. For the same molecule, the “% cell death K562” value ([9]; 100 µM) was 18 ± 3.7%.
For “H-ARAM c[K^5TARK^9E^10]TGG-K^14A-NH2 [Compound 22]”, the “% inhibition of LSD1 at 500 nM” value [10] was 73.4% and 73.43 ± 3.75%, the “% cell death Calu 6” value [3] was “inactive” and the “% cell death K562” value ([9]; 1.0 µM) was 53 ± 11.3%. The “% cell death K562” value ([9]; 100 µM) was 11 ± 3.2%.
For “H-ARAM c[K^5TARK^9E^10]TGG-K^14APRK-NH2 [Compound 21]”, the “% cell death K562” value ([9]; 1.0 µM) was 59 ± 8.1% and the “% cell death K562” value ([9]; 100 µM) was 9.5 ± 6.7%.
For “H-ARTM-c[K^5TARK^9E^10]TGGK^14APRKQLA-NH2 [Compound 9]”, the IC50 [11] is given as 158 µM and the IC50 [12] is given as 153 µM.
In the case of “H-ARTMK^5TARKS^10TGGKAPRKQLA-OH [Compound 8]”, the IC50 ([13]; read-out: IC50 (LSD1)) is listed as 0.051 µM, the Ki ([13]; read-out: Ki (LSD1)) is listed as 0.04 µM and the Ki [14] is listed as 0.05 µM.

Reference: paper PMC5837957 (European journal of medicinal chemistry, 2018)
